Reference: ChEMBL document CHEMBL5465560, “Selectivity Literature for EUbOPEN Chemogenomic Library” (2024)
One block for each molecule: values may come before it.

Assays:
[1] = target: T1, Serine/threonine-protein kinase D3 (Homo sapiens) (UniProt O94806); assay: Selectivity interaction (KinomeScan (DiscoverX)) EUB0001049a PRKD3; conditions: at 1 µM
T1 sequence (whole entry): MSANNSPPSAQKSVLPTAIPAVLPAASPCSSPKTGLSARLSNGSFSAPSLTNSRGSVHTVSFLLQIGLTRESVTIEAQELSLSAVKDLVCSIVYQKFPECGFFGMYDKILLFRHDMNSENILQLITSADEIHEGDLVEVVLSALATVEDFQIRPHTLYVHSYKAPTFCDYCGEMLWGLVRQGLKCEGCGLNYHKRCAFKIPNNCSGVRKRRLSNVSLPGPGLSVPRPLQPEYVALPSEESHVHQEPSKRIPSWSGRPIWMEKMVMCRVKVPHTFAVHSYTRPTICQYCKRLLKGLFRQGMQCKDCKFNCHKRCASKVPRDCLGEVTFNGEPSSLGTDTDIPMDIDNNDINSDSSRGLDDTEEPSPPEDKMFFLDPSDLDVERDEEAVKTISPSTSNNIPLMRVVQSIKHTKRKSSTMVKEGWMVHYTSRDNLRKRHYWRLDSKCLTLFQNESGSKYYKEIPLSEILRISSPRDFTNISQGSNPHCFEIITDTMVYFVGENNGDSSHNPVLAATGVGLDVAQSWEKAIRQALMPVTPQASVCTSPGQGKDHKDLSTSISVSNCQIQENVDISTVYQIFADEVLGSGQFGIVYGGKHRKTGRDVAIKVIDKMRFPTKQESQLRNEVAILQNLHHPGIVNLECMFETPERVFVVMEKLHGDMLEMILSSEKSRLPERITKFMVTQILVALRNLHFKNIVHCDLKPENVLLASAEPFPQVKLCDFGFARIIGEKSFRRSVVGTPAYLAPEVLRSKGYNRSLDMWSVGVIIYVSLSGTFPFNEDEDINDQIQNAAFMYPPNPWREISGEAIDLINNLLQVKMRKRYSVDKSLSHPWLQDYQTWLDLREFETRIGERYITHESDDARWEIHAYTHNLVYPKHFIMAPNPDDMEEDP

[2] = target: Interferon-induced, double-stranded RNA-activated protein kinase (Homo sapiens) (UniProt P19525); assay: Selectivity interaction (ActivX KiNativ screen (kinase selectivity in THP-1 cell lysates)) EUB0000639a EIF2AK2; type: subcellular; conditions: lysate, at 5 µM
Chain of Interferon-induced, double-stranded RNA-activated protein kinase (Homo sapiens) (P19525 whole entry, canonical isoform): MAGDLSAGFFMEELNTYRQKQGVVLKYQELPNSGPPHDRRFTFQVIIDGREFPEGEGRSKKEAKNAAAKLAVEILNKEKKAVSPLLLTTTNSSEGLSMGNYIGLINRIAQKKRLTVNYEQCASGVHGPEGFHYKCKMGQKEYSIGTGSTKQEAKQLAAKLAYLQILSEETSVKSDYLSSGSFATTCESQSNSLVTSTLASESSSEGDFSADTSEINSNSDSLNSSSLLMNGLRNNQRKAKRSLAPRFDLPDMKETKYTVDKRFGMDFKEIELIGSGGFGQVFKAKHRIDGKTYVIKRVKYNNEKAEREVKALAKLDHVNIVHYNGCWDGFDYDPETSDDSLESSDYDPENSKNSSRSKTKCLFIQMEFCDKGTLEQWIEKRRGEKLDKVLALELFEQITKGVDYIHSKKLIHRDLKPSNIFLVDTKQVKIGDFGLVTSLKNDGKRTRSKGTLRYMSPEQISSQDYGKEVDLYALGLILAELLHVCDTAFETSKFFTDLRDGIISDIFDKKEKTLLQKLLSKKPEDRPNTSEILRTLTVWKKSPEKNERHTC

[3] = target: Casein kinase I isoform delta (Homo sapiens, UniProt P48730); assay: Selectivity interaction (Kinase panel (literature)) EUB0001199aCl CSNK1D; conditions: at 1 µM
Chain of Casein kinase I isoform delta (P48730 whole entry, looked up, canonical isoform): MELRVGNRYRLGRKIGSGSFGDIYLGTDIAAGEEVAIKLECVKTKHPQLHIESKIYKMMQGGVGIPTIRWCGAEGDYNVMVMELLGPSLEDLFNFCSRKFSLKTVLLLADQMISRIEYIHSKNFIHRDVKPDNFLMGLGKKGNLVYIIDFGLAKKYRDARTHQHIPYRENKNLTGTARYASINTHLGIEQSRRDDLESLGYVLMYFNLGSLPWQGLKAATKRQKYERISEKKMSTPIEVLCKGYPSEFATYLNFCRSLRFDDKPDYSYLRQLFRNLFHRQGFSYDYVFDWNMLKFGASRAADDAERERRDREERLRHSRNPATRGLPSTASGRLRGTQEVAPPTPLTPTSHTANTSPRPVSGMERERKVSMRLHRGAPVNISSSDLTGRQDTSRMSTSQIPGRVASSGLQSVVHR

[4] = target: RAF proto-oncogene serine/threonine-protein kinase (Homo sapiens) (UniProt P04049); conditions: at 10 µM
Chain of RAF proto-oncogene serine/threonine-protein kinase (Homo sapiens) (P04049 whole entry): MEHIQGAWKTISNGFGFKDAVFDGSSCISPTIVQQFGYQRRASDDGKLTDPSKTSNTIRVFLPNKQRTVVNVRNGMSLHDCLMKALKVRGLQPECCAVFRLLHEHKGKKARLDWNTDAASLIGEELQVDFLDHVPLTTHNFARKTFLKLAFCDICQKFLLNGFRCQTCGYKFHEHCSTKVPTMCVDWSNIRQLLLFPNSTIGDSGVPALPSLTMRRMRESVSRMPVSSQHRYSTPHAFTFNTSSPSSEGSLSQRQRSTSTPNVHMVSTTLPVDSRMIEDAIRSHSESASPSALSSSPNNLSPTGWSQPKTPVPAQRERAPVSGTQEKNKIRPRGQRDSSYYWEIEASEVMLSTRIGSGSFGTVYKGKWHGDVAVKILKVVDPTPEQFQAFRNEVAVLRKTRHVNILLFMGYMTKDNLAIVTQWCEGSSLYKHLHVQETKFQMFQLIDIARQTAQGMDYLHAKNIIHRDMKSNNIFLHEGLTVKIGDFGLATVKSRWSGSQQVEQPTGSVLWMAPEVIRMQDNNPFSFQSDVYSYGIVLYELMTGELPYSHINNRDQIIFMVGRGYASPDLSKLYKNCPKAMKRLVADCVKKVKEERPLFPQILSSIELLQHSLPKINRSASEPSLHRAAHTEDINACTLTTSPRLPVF

[5] = target: Dual specificity testis-specific protein kinase 1 (Homo sapiens) (UniProt Q15569); assay: Selectivity interaction (KinomeScan (DiscoverX)) EUB0000655a TESK1; conditions: at 10 µM
Chain of Dual specificity testis-specific protein kinase 1 (Homo sapiens) (Q15569 whole entry, looked up): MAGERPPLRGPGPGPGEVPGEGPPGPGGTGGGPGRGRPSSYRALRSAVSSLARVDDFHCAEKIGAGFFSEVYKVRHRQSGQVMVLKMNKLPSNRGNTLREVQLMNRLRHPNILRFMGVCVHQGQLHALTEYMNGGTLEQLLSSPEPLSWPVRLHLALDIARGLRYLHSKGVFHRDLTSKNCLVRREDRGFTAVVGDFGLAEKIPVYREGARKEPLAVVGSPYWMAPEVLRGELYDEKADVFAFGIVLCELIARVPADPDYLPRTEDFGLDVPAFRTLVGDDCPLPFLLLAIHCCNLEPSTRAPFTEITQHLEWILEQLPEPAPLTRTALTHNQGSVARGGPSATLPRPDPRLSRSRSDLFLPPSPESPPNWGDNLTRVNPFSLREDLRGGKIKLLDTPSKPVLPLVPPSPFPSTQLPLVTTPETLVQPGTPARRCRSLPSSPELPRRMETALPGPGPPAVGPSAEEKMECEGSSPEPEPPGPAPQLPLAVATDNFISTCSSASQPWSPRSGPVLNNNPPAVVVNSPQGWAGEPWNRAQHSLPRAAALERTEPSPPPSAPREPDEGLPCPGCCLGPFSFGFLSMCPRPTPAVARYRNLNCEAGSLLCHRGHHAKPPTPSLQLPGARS

[6] = target: Serine/threonine-protein kinase Nek7 (Homo sapiens) (UniProt Q8TDX7); assay: Selectivity interaction (ActivX KiNativ screen (ex vivo kinase selectivity in human PBMCs)) EUB0001619a NEK7; type: cell-based; conditions: PBMC, at 1 µM
Chain of Serine/threonine-protein kinase Nek7 (Homo sapiens) (Q8TDX7 whole entry, looked up): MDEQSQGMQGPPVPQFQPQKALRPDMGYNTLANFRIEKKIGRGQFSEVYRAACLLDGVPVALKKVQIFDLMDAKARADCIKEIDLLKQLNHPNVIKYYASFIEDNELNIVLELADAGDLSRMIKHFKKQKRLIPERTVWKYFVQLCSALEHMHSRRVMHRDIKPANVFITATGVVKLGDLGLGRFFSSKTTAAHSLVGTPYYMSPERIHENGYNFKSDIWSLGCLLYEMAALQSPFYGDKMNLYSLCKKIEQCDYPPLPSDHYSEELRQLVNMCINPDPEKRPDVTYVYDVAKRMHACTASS

[7] = target: T2, Mitogen-activated protein kinase kinase kinase 12 (Homo sapiens) (UniProt Q12852); assay: Selectivity interaction (KinomeScan (DiscoverX)) EUB0000618a MAP3K12; conditions: at 10 µM
T2 sequence (whole entry): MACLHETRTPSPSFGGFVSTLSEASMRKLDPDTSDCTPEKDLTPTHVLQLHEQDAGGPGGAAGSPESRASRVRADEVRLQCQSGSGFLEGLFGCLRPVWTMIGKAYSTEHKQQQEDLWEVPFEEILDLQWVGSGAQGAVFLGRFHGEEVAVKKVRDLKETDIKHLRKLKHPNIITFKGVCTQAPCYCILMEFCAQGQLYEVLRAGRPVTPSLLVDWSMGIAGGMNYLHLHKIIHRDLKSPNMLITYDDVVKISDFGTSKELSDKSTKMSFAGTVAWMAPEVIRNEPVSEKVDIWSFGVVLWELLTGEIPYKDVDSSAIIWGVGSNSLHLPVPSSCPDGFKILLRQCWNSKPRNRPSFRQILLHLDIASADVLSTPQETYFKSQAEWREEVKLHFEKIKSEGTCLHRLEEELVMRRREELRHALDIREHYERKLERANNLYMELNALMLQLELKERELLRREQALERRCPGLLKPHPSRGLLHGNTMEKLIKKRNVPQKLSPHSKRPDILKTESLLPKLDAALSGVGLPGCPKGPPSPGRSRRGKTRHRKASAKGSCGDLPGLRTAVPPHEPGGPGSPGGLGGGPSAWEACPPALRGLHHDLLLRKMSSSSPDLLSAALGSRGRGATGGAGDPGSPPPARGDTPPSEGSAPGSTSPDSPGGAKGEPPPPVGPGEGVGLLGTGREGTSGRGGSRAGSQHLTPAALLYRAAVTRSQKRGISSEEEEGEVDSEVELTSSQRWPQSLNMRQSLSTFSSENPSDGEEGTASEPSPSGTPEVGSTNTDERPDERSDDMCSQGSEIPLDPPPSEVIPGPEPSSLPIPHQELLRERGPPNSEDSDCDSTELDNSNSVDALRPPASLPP

[8] = target: T3, cGMP-dependent protein kinase 2 (Homo sapiens) (UniProt Q13237); assay: Selectivity interaction (SelectScreen profiling (Invitrogen)) EUB0000607a PRKG2; conditions: at 2 µM
T3 sequence (whole entry): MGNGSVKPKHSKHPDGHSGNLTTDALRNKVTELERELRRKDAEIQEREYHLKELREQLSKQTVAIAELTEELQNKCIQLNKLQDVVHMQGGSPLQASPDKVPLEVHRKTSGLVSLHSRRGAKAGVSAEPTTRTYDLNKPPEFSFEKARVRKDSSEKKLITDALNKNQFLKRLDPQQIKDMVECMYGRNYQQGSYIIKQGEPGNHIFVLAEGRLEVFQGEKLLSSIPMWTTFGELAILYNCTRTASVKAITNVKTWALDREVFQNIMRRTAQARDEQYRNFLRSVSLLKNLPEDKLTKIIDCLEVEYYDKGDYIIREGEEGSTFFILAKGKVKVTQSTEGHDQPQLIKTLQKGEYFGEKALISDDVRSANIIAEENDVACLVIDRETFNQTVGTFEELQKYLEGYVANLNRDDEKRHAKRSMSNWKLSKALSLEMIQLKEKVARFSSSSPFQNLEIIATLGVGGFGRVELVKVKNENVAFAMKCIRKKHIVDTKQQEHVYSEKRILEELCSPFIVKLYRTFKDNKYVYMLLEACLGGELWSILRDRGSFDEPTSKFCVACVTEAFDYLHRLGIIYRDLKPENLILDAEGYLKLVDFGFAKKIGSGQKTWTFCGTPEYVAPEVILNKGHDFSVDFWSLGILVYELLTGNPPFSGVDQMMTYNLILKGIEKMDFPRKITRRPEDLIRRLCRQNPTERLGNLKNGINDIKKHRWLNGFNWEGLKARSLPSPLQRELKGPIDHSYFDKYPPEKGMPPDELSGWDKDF

[9] = target: Cyclin-dependent kinase 16 (Homo sapiens) (UniProt Q00536); assay: Selectivity interaction (KinomeScan (DiscoverX)) EUB0000607a CDK16; conditions: at 10 µM
Chain of Cyclin-dependent kinase 16 (Homo sapiens) (Q00536 whole entry): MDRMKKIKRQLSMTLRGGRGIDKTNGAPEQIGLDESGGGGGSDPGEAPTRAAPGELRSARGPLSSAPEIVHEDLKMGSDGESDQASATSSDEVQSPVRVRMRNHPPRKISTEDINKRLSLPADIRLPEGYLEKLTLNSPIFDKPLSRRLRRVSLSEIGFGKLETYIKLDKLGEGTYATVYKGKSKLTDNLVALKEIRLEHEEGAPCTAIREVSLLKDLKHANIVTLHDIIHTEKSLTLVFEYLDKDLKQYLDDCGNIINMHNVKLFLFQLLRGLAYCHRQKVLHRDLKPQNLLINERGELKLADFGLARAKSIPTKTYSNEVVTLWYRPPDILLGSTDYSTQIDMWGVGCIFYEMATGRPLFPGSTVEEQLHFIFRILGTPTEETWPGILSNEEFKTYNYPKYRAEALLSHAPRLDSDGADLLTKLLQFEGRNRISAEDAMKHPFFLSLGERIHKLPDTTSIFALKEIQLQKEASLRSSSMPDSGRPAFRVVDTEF

SMILES: COc1cc(Nc2nc(C)cc(-c3cnn4nc(OC)ccc34)n2)cc(C(F)(F)F)c1
% of control [1]: 100%

% of inhibition [2]: 0.6%
SMILES: CC[C@@H]1[C@H](F)C(=O)N[C@@H]1COc1nccc2cc(C(N)=O)c(OC)cc12 [ZIMLOVISERTIB]

% of inhibition [3]: 94%
SMILES: CN1Cc2nccc(-c3cn(C)nc3-c3ccc(F)cc3)c2C1=O

SMILES: CN(C)CCOc1ccc(-c2nc(-c3ccncc3)c(-c3ccc4c(c3)CC/C4=N\O)[nH]2)cc1
% of control [4]: 0% | % of control [5]: 76%

SMILES: N#Cc1cccc(-c2c[nH]c3ncnc(N4CCOCC4)c23)c1
% of inhibition [6]: 7%

SMILES: O[C@H]1CC[C@H](Nc2ncc3nc(Nc4c(F)cc(F)cc4F)n([C@H]4CCOC4)c3n2)CC1
% of control [7]: 100%

SMILES: CNC(=O)Nc1ccc(-c2nc(N3CC4CCC(C3)O4)c3cnn(C4CCC5(CC4)OCCO5)c3n2)cc1
% of inhibition [8]: 9% | % of control [9]: 100%
